Literature values, collected in patent US6858233B2, “Simmondsin processing methods and products” (International Flora Technologies, Ltd., priority 2001, dated 2005).

Key:
animals = details: reported in the literature
rats = details: relative to simmondsin, Cokelaere et al. 1996

| Molecule | ability to cause food intake reduction (animals) | efficacy compared to simmondsin (food intake reduction) (rats) |
| --- | --- | --- |
| N#C/C=C1\[C@H](O[C@@H]2O[C@H](CO)[C@@H](O)[C@H](O)[C@H]2O)C[C@H](O)[C@H](O)[C@H]1O [didemethyl simmondsin] | thought not to have such efficacy |  |
| CO[C@H]1[C@@H](OC)C[C@@H](O[C@@H]2O[C@H](CO)[C@@H](O)[C@H](O)[C@H]2O)/C(=C\C#N)[C@@H]1O [simmondsin] | significant food intake reduction |  |
| simmondsin ferulate | significant food intake reduction | about 67% |
